# Experimental data from US11903387B2 (priority 2016, dated 2024).
# Values joined by “and” are separate entries in the source; they are usually repeats but may differ in a detail not shown here. Equal values may be shown once. Read-outs that look alike come from different tables or passages of the source.
# How the values were obtained:
# [1] = tested on: Pseudoperonospora cubensis; assay: Test 2: control effect against cucumber downy mildew; type: in vivo; details: for pest or weed control at 0.4 ppm / pest or weed control at 2 ppm / pest or weed control at 10 ppm / pest or weed control at 50 ppm / pest or weed control at 250 ppm / pest or weed control at 20 ppm / pest or weed control at 100 ppm / pest or weed control at 500 ppm: Pseudoperonospora cubensis; for pest or weed control at 20 ppm: component (b) alone 20 ppm; for pest or weed control at 100 ppm: component (b) alone 100 ppm; for pest or weed control at 500 ppm: component (b) alone 500 ppm
# [2] = tested on: Phytophthora infestans; assay: whole plant or invertebrate; type: in vivo; details: for pest or weed control at 0.4 ppm / pest or weed control at 2 ppm / pest or weed control at 10 ppm / pest or weed control at 50 ppm / pest or weed control at 250 ppm / pest or weed control at 20 ppm / pest or weed control at 100 ppm / pest or weed control at 500 ppm: Phytophthora infestans, in Solanum lycopersicum; for pest or weed control at 250 ppm: read-out: Test 1 preventive value, Measured, applied alone, 250 ppm; for pest or weed control at 20 ppm: read-out: Test 1 Measured, component (b) alone 20 ppm; for pest or weed control at 100 ppm: read-out: Test 1 Measured, component (b) alone 100 ppm; for pest or weed control at 500 ppm: read-out: Test 1 Measured, component (b) alone 500 ppm; for Test 1 preventive value, Measured: applied alone
# [3] = component (b) alone, 0.4 ppm, read-out: Test 2 Measured
# [4] = component (b) alone, 2 ppm, read-out: Test 2 Measured
# [5] = component (b) alone, 10 ppm, read-out: Test 2 Measured
# [6] = read-out: Test 1 Measured, component (b) alone, 0.4 ppm
# [7] = read-out: Test 1 Measured, component (b) alone, 2 ppm
# [8] = read-out: Test 1 Measured, component (b) alone, 10 ppm
# [9] = applied alone, 10 ppm, read-out: Test 2 preventive value, Measured
# [10] = applied alone, 50 ppm, read-out: Test 2 preventive value, Measured
# [11] = read-out: Test 1 preventive value, Measured, applied alone, 10 ppm
# [12] = read-out: Test 1 preventive value, Measured, applied alone, 50 ppm
# [13] = component (b) alone 0.4 ppm, average of three repeats
# [14] = component (b) alone 2 ppm, average of three repeats
# [15] = component (b) alone 10 ppm, average of three repeats
# [16] = component (b) alone, 50 ppm, read-out: Test 2 Measured
# [17] = read-out: Test 1 Measured preventive value, component (b) alone, 2 ppm
# [18] = read-out: Test 1 Measured preventive value, component (b) alone, 10 ppm
# [19] = read-out: Test 1 Measured preventive value, component (b) alone, 50 ppm
# [20] = applied alone, 2 ppm, read-out: Test 2 preventive value, Measured
compound,measurement,setting,value
CSC1=N[C@@](C)(c2ccccc2)C(=O)N1Nc1ccccc1 [Fenamidone],pest or weed control at 0.4 ppm,[1]; [3],0%
same,pest or weed control at 2 ppm,[1]; [4],0%
same,pest or weed control at 10 ppm,[1]; [5],0%
same,pest or weed control at 0.4 ppm,[2]; [6],16.7%
same,pest or weed control at 2 ppm,[2]; [7],94.2%
same,pest or weed control at 10 ppm,[2]; [8],98.5%
CC(C)CC(C)c1sccc1NC(=O)c1cn(C)nc1C(F)(F)F (stereo not drawn) [Penthiopyrad],pest or weed control at 10 ppm,[1]; [9],0%
same,pest or weed control at 50 ppm,[1]; [10],0%
same,pest or weed control at 250 ppm,"[1]; applied alone, 250 ppm, read-out: Test 2 preventive value, Measured",27.5%
same,pest or weed control at 10 ppm,[2]; [11],0%
same,pest or weed control at 50 ppm,[2]; [12],0%
same,pest or weed control at 250 ppm,[2],0%
Cc1cccc2sc3nncn3c12 [Tricyclazole],pest or weed control at 20 ppm,[1]; read-out: Test 2 Measured,0%
same,pest or weed control at 100 ppm,[1]; read-out: Test 2 Measured,0%
same,pest or weed control at 500 ppm,[1]; read-out: Test 2 Measured,22.5%
same,pest or weed control at 20 ppm,[2],0%
same,pest or weed control at 100 ppm,[2],0%
same,pest or weed control at 500 ppm,[2],70%
COCC(=O)N(c1c(C)cccc1C)[C@H](C)C(=O)OC [Metalaxyl-M],Test 2 Measured preventive value,[1]; [13],0
same,Test 2 Measured preventive value,[1]; [14],0
same,Test 2 Measured preventive value,[1]; [15],0
same,Test 2 Measured,"[1]; component (b) alone, 0.4 ppm",0
same,Test 2 Measured preventive value,"[1]; component (b) alone, 0.4 ppm",0
same,Test 2 Measured,"[1]; component (b) alone, 2 ppm",0
same,Test 2 Measured preventive value,"[1]; component (b) alone, 2 ppm",0
same,Test 2 Measured,"[1]; component (b) alone, 10 ppm",0
same,Test 2 Measured preventive value,"[1]; component (b) alone, 10 ppm",0
same,Test 1 Measured preventive value,[2]; [13],38.3
same,Test 1 Measured preventive value,[2]; [14],89.2
same,Test 1 Measured preventive value,[2]; [15],100.0
same,Test 1 Measured,"[2]; component (b) alone, 0.4 ppm",54.4
same,Test 1 Measured preventive value,"[2]; component (b) alone, 0.4 ppm",38.3
same,Test 1 Measured,"[2]; component (b) alone, 2 ppm",86.0
same,Test 1 Measured preventive value,"[2]; component (b) alone, 2 ppm",89.3
same,Test 1 Measured,"[2]; component (b) alone, 10 ppm",99.0
same,Test 1 Measured preventive value,"[2]; component (b) alone, 10 ppm",98.5
Propineb,Test 2 Measured,"[1]; component (b) alone, 2 ppm",17.5
same,Test 2 Measured preventive value,"[1]; component (b) alone, 2 ppm",7.5
same,Test 2 Measured,"[1]; component (b) alone, 10 ppm",95
same,Test 2 Measured preventive value,"[1]; component (b) alone, 10 ppm",94.3
same,Test 2 Measured,"[1]; component (b) alone, 50 ppm",100
same,Test 2 Measured preventive value,"[1]; component (b) alone, 50 ppm",100
same,Test 1 Measured,"[2]; component (b) alone, 2 ppm",0.0
same,Test 1 Measured preventive value,"[2]; component (b) alone, 2 ppm",0.0
same,Test 1 Measured,"[2]; component (b) alone, 10 ppm",36.1
same,Test 1 Measured preventive value,"[2]; component (b) alone, 10 ppm",48.3
same,Test 1 Measured,"[2]; component (b) alone, 50 ppm",99.0
same,Test 1 Measured preventive value,"[2]; component (b) alone, 50 ppm",98.3
Fc1ccc(Oc2ccnc3cc(Cl)cc(Cl)c23)cc1 [Quinoxyfen],pest or weed control at 250 ppm,"[1]; component (b) alone 250 ppm, read-out: Test 2 Measured",0%
same,pest or weed control at 10 ppm,[1]; [5],0%
same,pest or weed control at 50 ppm,[1]; [16],0%
same,pest or weed control at 10 ppm,[2]; [11],0%
same,pest or weed control at 50 ppm,[2]; [12],0%
same,pest or weed control at 250 ppm,[2],0%
CCC(C)(NC(=O)c1cc(Cl)c(C)c(Cl)c1)C(=O)CCl (stereo not drawn) [Zoxamide],Test 2 Measured preventive value,"[1]; component (b) alone, 2 ppm",94
same,Test 2 Measured preventive value,"[1]; component (b) alone, 10 ppm",97.3
same,Test 2 Measured preventive value,"[1]; component (b) alone, 50 ppm",98.8
same,pest or weed control at 2 ppm,[2]; [17],83.3%
same,pest or weed control at 10 ppm,[2]; [18],95%
same,pest or weed control at 50 ppm,[2]; [19],99%
CO/N=C(/C(=O)OC)c1ccccc1COc1ccccc1C [Kresoxim-methyl],pest or weed control at 2 ppm,[1]; [20],0%
same,pest or weed control at 10 ppm,[1]; [9],7.5%
same,pest or weed control at 50 ppm,[1]; [10],2.5%
same,pest or weed control at 2 ppm,"[2]; read-out: Test 1 preventive value, Measured, applied alone, 2 ppm",50%
same,pest or weed control at 10 ppm,[2]; [11],90.7%
same,pest or weed control at 50 ppm,[2]; [12],99.8%
CC(C)NC(=O)N1CC(=O)N(c2cc(Cl)cc(Cl)c2)C1=O [Iprodione],pest or weed control at 20 ppm,[1]; read-out: Test 2 Measured,0%
same,pest or weed control at 100 ppm,[1]; read-out: Test 2 Measured,0%
same,pest or weed control at 500 ppm,[1]; read-out: Test 2 Measured,0%
same,pest or weed control at 20 ppm,[2],0%
same,pest or weed control at 100 ppm,[2],0%
same,pest or weed control at 500 ppm,[2],5%
O=C1C2CC=CCC2C(=O)N1SC(Cl)(Cl)Cl (stereo not drawn) [Captan],pest or weed control at 2 ppm,[1]; [4],90.1%
same,pest or weed control at 10 ppm,[1]; [5],99%
same,pest or weed control at 50 ppm,[1]; [16],99%
same,Test 2 Measured preventive value,"[1]; component (b) alone, 2 ppm",96 and 100
same,Test 2 Measured preventive value,"[1]; component (b) alone, 10 ppm",99.3
same,Test 2 Measured preventive value,"[1]; component (b) alone, 50 ppm",100 and 96
same,pest or weed control at 2 ppm,[2]; [17],5%
same,pest or weed control at 10 ppm,[2]; [18],71.7%
same,pest or weed control at 50 ppm,[2]; [19],93.8%
same,pest or weed control at 2 ppm,[2]; [7],10%
same,pest or weed control at 10 ppm,[2]; [8],64.5%
same,pest or weed control at 50 ppm,"[2]; read-out: Test 1 Measured, component (b) alone, 50 ppm",90%
N#Cc1c[nH]cc1-c1cccc2c1OC(F)(F)O2 [Fludioxonil],pest or weed control at 20 ppm,[1]; read-out: Test 2 Measured,87.5%
same,pest or weed control at 100 ppm,[1]; read-out: Test 2 Measured,97%
same,pest or weed control at 500 ppm,[1]; read-out: Test 2 Measured,98.3%
same,pest or weed control at 20 ppm,[2],0%
same,pest or weed control at 100 ppm,[2],6.7%
same,pest or weed control at 500 ppm,[2],18.3%
N#Cc1c(Cl)c(Cl)c(Cl)c(C#N)c1Cl [Chlorothalonil],pest or weed control at 0.4 ppm,"[1]; applied alone, 0.4 ppm, read-out: Test 2 preventive value, Measured",41.8%
same,pest or weed control at 2 ppm,[1]; [20],100%
same,pest or weed control at 10 ppm,[1]; [9],100%
same,pest or weed control at 0.4 ppm,[1]; [3],0%
same,pest or weed control at 2 ppm,[1]; [4],80.5%
same,pest or weed control at 10 ppm,[1]; [5],100%
same,pest or weed control at 0.4 ppm,"[2]; read-out: Test 1 Measured preventive value, component (b) alone, 0.4 ppm",0%
same,pest or weed control at 2 ppm,[2]; [17],53.3%
same,pest or weed control at 10 ppm,[2]; [18],100%
same,pest or weed control at 0.4 ppm,[2]; [6],0%
same,pest or weed control at 2 ppm,[2]; [7],62.1%
same,pest or weed control at 10 ppm,[2]; [8],100%
O=C(NCc1ncc(C(F)(F)F)cc1Cl)c1c(Cl)cccc1Cl [Fluopicolide],Test 2 Measured,"[1]; component (b) alone, 0.4 ppm",5
same,Test 2 Measured,"[1]; component (b) alone, 2 ppm",98.3
same,Test 2 Measured,"[1]; component (b) alone, 10 ppm",100
same,Test 1 Measured,"[2]; component (b) alone, 0.4 ppm",0.0
same,Test 1 Measured,"[2]; component (b) alone, 2 ppm",30.0
same,Test 1 Measured,"[2]; component (b) alone, 10 ppm",90.8
CCCCCCCCc1c(CC)nc2ncnn2c1N [Ametoctradin],Test 2 Measured,"[1]; component (b) alone, 0.4 ppm",77.5
same,Test 2 Measured,"[1]; component (b) alone, 2 ppm",95
same,Test 2 Measured,"[1]; component (b) alone, 10 ppm",98.8
same,Test 1 Measured,"[2]; component (b) alone, 0.4 ppm",0.0
same,Test 1 Measured,"[2]; component (b) alone, 2 ppm",18.3
same,Test 1 Measured,"[2]; component (b) alone, 10 ppm",95.7
CO/C=C(/C(=O)OC)c1ccccc1Oc1cc(Oc2ccccc2C#N)ncn1 [Azoxystrobin],"Test 2 preventive value, Measured","[1]; applied alone, 0.4 ppm",0
same,"Test 2 preventive value, Measured","[1]; applied alone, 2 ppm",0
same,"Test 2 preventive value, Measured","[1]; applied alone, 10 ppm",0
same,"Test 1 preventive value, Measured",[2]; 0.4 ppm,5.0
same,"Test 1 preventive value, Measured",[2]; 2 ppm,66.7
same,"Test 1 preventive value, Measured",[2]; 10 ppm,96.2
CC(=O)Oc1c(C)c(C)nc2c(F)cc(C(C)(C)C)cc12 [Tebufloquin],Test 2 Measured,[1]; component (b) alone 4 ppm,0
same,Test 2 Measured,"[1]; component (b) alone, 20 ppm",0
same,Test 2 Measured,"[1]; component (b) alone, 100 ppm",0
same,Test 1 Measured,[2]; component (b) alone 4 ppm,0.0
same,Test 1 Measured,"[2]; component (b) alone, 20 ppm",0.0
same,Test 1 Measured,"[2]; component (b) alone, 100 ppm",46.7
Cc1cc(C(F)(F)F)nn1CC(=O)N1CCC(c2nc(C3=NOC(c4c(F)cccc4F)C3)cs2)CC1 (stereo not drawn) [Oxathiapiprolin],Test 2 Measured,[1]; component (b) alone 0.0024 ppm,40
same,Test 2 Measured,[1]; component (b) alone 0.012 ppm,99
same,Test 2 Measured,[1]; component (b) alone 0.06 ppm,100
same,Test 1 Measured,[2]; component (b) alone 0.0024 ppm,60.2
same,Test 1 Measured,[2]; component (b) alone 0.012 ppm,95
same,Test 1 Measured,[2]; component (b) alone 0.06 ppm,100
